From patent US8258114B2, “Modulation of glucose-6-phosphatase translocase expression” (Isis Pharmaceuticals, Inc., priority 2004, dated 2012)
Oligonucleotides are written 5' to 3', each unit as a sugar letter and its base; * is a phosphorothioate linkage, no mark a phosphodiester; rarer units and linkages stand in square brackets, end groups in braces. Plain capitals give the bases only. e = 2'-O-(2-methoxyethyl) (MOE); [5mC] = 5-methylcytosine; d = 2'-deoxy (DNA)

system: mouse glucose-6-phosphatase translocase mRNA; test: Antisense inhibition of mouse glucose-6-phosphatase translocase mRNA in primary mouse hepatocytes, 150 nM, LIPOFECTIN (Table 22); type: cell-based; conditions: real-time PCR
Experimental: Primary mouse hepatocytes were prepared from CD-1 mice purchased from Charles River Labs. Primary mouse hepatocytes were routinely cultured in Hepatocyte Attachment Media supplemented with 10% fetal bovine serum (Invitrogen Life Technologies, Carlsbad, Calif.), 250 nM dexamethasone, and 10 nM bovine insulin (Sigma-Aldrich, St. Louis, Mo.). Cells were seeded into 96-well plates (Falcon-Primaria #353872, BD Biosciences, Bedford, Mass.) at a density of approximately 4,000-6,000 cells/well for use in oligomeric compound transfection experiments.
When cells reached 65-75% confluency, they were treated with oligonucleotide. Oligonucleotide was mixed with LIPOFECTIN™ Invitrogen Life Technologies, Carlsbad, Calif.) in Opti-MEM™-1 reduced serum medium (Invitrogen Life Technologies, Carlsbad, Calif.) to achieve the desired concentration of oligonucleotide and a LIPOFECTIN™ concentration of 2.5 or 3 μg/mL per 100 nM oligonucleotide. This transfection mixture was incubated at room temperature for approximately 0.5 hours. For cells grown in 96-well plates, wells were washed once with 100 μL OPTI-MEM™-1 and then treated with 130 μL of the transfection mixture. Cells grown in 24-well plates or other standard tissue culture plates are treated similarly, using appropriate volumes of medium and oligonucleotide. Cells are treated and data are obtained in duplicate or triplicate. After approximately 4-7 hours of treatment at 37° C., the medium containing the transfection mixture was replaced with fresh culture medium. Cells were harvested 16-24 hours after oligonucleotide treatment.
Quantitation of glucose 6-phosphatase translocase mRNA levels was accomplished by real-time quantitative PCR using the ABI PRISM™ 7600, 7700, or 7900 Sequence Detection System (PE-Applied Biosystems, Foster City, Calif.) according to manufacturer's instructions.
Prior to quantitative PCR analysis, primer-probe sets specific to the target gene being measured were evaluated for their ability to be “multiplexed” with a GAPDH amplification reaction. After isolation the RNA is subjected to sequential reverse transcriptase (RT) reaction and real-time PCR, both of which are performed in the same well. RT and PCR reagents were obtained from Invitrogen Life Technologies (Carlsbad, Calif.). […] The RT reaction was carried out by incubation for 30 minutes at 48° C. Following a 10 minute incubation at 95° C. to activate the PLATINUM® Taq, 40 cycles of a two-step PCR protocol were carried out: 95° C. for 15 seconds (denaturation) followed by 60° C. for 1.5 minutes (annealing/extension).
Gene target quantities obtained by RT, real-time PCR were normalized using either the expression level of GAPDH, a gene whose expression is constant, or by quantifying total RNA using RiboGreen™ (Molecular Probes, Inc. Eugene, Oreg.). GAPDH expression was quantified by RT, real-time PCR, by being run simultaneously with the target, multiplexing, or separately. Total RNA was quantified using RiboGreen™ RNA quantification reagent (Molecular Probes, Inc. Eugene, Oreg.).
A series of oligomeric compounds was designed to target different regions of mouse glucose-6-phosphatase translocase, using published sequences cited in Table 1. All compounds in Table 22 are chimeric oligonucleotides (“gapmers”) 20 nucleotides in length, composed of a central “gap” region consisting of 10 2′-deoxynucleotides, which is flanked on both sides (5′ and 3′) by five-nucleotide “wings”. The wings are composed of 2′-O-(2-methoxyethyl) nucleotides, also known as 2′-MOE nucleotides. The internucleoside (backbone) linkages are phosphorothioate throughout the oligonucleotide. All cytidine residues are 5-methylcytidines. The compounds were analyzed for their effect on gene target mRNA levels by quantitative real-time PCR as described in other examples herein, using the following primer-probe set designed to hybridize to mouse glucose-6-phosphatase translocase: • forward primer: […]

Row | Substance | % Inhib of mouse glucose-6-phosphatase translocase mRNA levels [%]
1 | 145690 (antisense e[5mC]*eT*e[5mC]*e[5mC]*eG*dA*d[5mC]*d[5mC]*dT*d[5mC]*dG*dA*dG*dG*dG*e[5mC]*eA*e[5mC]*eT*eG) [compound 145690] | 56
2 | 145691 (antisense eT*eG*eT*e[5mC]*eT*dG*dA*d[5mC]*dA*dG*dG*dT*dA*dA*d[5mC]*e[5mC]*eA*eG*e[5mC]*eT) [compound 145691] | 30
3 | 145692 (antisense eG*e[5mC]*eT*eG*e[5mC]*d[5mC]*dA*dT*d[5mC]*d[5mC]*d[5mC]*dA*dG*d[5mC]*d[5mC]*eA*eT*e[5mC]*eA*eT) [compound 145692] | 65
4 | 145693 (eG*eG*eA*eA*eG*dA*dG*dA*dT*dA*d[5mC]*dG*dT*dG*dG*eA*eT*eG*e[5mC]*eT; antisense) [compound 145693] | 0
5 | 145694 (eA*eG*eT*e[5mC]*eA*d[5mC]*dT*dG*dG*dT*d[5mC]*dA*d[5mC]*d[5mC]*dG*eT*eT*eA*e[5mC]*eT; antisense) [compound 145694] | 23
6 | 145695 (e[5mC]*eA*eA*eT*eG*dG*dG*dA*d[5mC]*d[5mC]*dA*dT*dA*dA*dG*eA*eA*eG*eA*eG; antisense) [compound 145695] | 24
7 | 145696 (e[5mC]*eT*e[5mC]*e[5mC]*eA*dA*dA*d[5mC]*dA*dA*dG*dG*d[5mC]*dA*dA*eT*eG*eG*eG*eA; antisense) [compound 145696] | 37
8 | 145697 (eT*eG*eG*e[5mC]*eT*dA*dT*dG*dA*d[5mC]*dT*d[5mC]*d[5mC]*dA*dA*eA*e[5mC]*eA*eA*eG; antisense) [compound 145697] | 45
9 | 145698 (e[5mC]*e[5mC]*eA*e[5mC]*eA*dA*dT*dA*dG*d[5mC]*dA*dT*dG*dA*dG*eA*eG*eG*eT*eT; antisense) [compound 145698] | 33
10 | 145699 (eT*e[5mC]*e[5mC]*eA*e[5mC]*d[5mC]*d[5mC]*dA*d[5mC]*dA*dT*dT*dG*dG*d[5mC]*e[5mC]*eA*eT*eA*eA; antisense) [compound 145699] | 41
11 | 145701 (eA*eG*eT*eG*e[5mC]*dT*dT*dG*dG*d[5mC]*dA*dA*dT*dG*dG*eT*eG*e[5mC]*eT*eG; antisense) [compound 145701] | 54
12 | 145703 (eA*e[5mC]*e[5mC]*eA*e[5mC]*dT*dT*d[5mC]*dT*dG*d[5mC]*d[5mC]*dA*d[5mC]*d[5mC]*e[5mC]*eA*eG*eA*eA; antisense) [compound 145703] | 42
13 | 145704 (eG*e[5mC]*eT*eG*eG*d[5mC]*dT*d[5mC]*d[5mC]*dA*d[5mC]*dA*dA*dA*d[5mC]*e[5mC]*eA*e[5mC]*eT*eT; antisense) [compound 145704] | 54
14 | 145705 (e[5mC]*eT*eT*eG*eG*dT*dG*d[5mC]*dG*dG*dA*dT*dA*dT*dT*eT*e[5mC]*eG*eA*eA; antisense) [compound 145705] | 49
15 | 145707 (eT*eG*eG*eA*eT*dA*d[5mC]*dT*d[5mC]*dG*dG*d[5mC]*d[5mC]*d[5mC]*dA*eT*e[5mC]*eT*eT*eG; antisense) [compound 145707] | 56
16 | 145708 (eG*eG*eA*e[5mC]*eT*d[5mC]*dG*dA*dT*dT*d[5mC]*dA*d[5mC]*dT*d[5mC]*eT*e[5mC]*e[5mC]*e[5mC]*eT; antisense) [compound 145708] | 48

Row | Substance | % Inhib of mouse glucose-6-phosphatase translocase mRNA levels [%]
17 | 145709 (eG*eG*eG*eA*eT*dG*d[5mC]*dT*d[5mC]*d[5mC]*dA*dT*dA*dG*d[5mC]*eG*eA*eG*eG*eA; antisense) [compound 145709] | 14
18 | 145710 (e[5mC]*e[5mC]*eT*eG*e[5mC]*d[5mC]*dA*dG*dT*dA*dA*dG*dG*d[5mC]*dT*eG*e[5mC]*eA*eG*eT; antisense) [compound 145710] | 13
19 | 145711 (eG*eA*eG*eA*eG*dA*d[5mC]*dA*dG*dT*dG*dG*dA*dG*dA*e[5mC]*eA*e[5mC]*eA*eG; antisense) [compound 145711] | 33
20 | 145712 (eT*eG*eG*eA*eG*dG*dT*dT*d[5mC]*dA*dG*dA*dG*dA*dG*eA*e[5mC]*eA*eG*eT; antisense) [compound 145712] | 42
21 | 145713 (eG*eT*eA*eA*e[5mC]*dT*dT*dG*d[5mC]*dA*dG*d[5mC]*dA*d[5mC]*d[5mC]*eA*eT*eG*eG*eA; antisense) [compound 145713] | 63
22 | 145714 (eG*e[5mC]*e[5mC]*eA*e[5mC]*dT*dG*dG*dT*dA*dA*d[5mC]*dT*dT*dG*e[5mC]*eA*eG*e[5mC]*eA; antisense) [compound 145714] | 66
23 | 145715 (eA*eG*eG*eA*eG*dT*dT*dG*d[5mC]*d[5mC]*dT*dG*dT*d[5mC]*dT*eG*e[5mC]*e[5mC]*eA*eG; antisense) [compound 145715] | 50
24 | 145716 (e[5mC]*e[5mC]*e[5mC]*eT*eG*dA*dA*dT*dT*d[5mC]*dA*dG*dG*dA*dG*eT*eT*eG*e[5mC]*e[5mC]; antisense) [compound 145716] | 52
25 | 145717 (eT*eA*e[5mC]*eT*e[5mC]*dA*d[5mC]*dT*dA*dG*dG*dA*dG*dA*dT*e[5mC]*eA*eG*eG*eA; antisense) [compound 145717] | 52
26 | 145718 (e[5mC]*eA*eA*eT*eT*dT*dT*dG*d[5mC]*d[5mC]*d[5mC]*d[5mC]*d[5mC]*dT*dG*e[5mC]*e[5mC]*eA*eA*eG; antisense) [compound 145718] | 26
27 | 145719 (eG*eA*eG*eT*eG*dG*dT*dG*dG*dA*d[5mC]*dT*d[5mC]*d[5mC]*dT*e[5mC]*eT*e[5mC]*e[5mC]*eT; antisense) [compound 145719] | 47
28 | 145720 (TCAAATCTAGCTTTATTCGA; 2'-MOE wings and deoxy gap, wing lengths and linkages not given here) [compound 145720] | 11
29 | 145721 (eG*eG*e[5mC]*eT*eG*dT*dG*dG*dG*dT*d[5mC]*d[5mC]*d[5mC]*d[5mC]*dG*eA*eA*e[5mC]*eG*eA; antisense) [compound 145721] | 0
30 | 145722 (e[5mC]*eA*eG*eT*eG*dT*d[5mC]*d[5mC]*d[5mC]*dT*dG*d[5mC]*dG*dA*d[5mC]*eA*eT*e[5mC]*eA*eG; antisense) [compound 145722] | 8
31 | 145723 (eG*e[5mC]*e[5mC]*eG*e[5mC]*d[5mC]*dT*dT*d[5mC]*dT*dG*dG*dA*d[5mC]*dA*eA*eT*e[5mC]*eA*eT; antisense) [compound 145723] | 0
32 | 145724 (eG*eG*e[5mC]*eT*e[5mC]*dT*dT*dT*dA*dT*dA*dG*d[5mC]*d[5mC]*dG*e[5mC]*e[5mC]*eT*eT*e[5mC]; antisense) [compound 145724] | 0
